pIC50: −log10 of the molar value.

Here are results for 21 compounds from ChEMBL document CHEMBL3045376, “Pharmacophore modeling and 3D QSAR analysis of isothiazolidinedione derivatives as PTP1B inhibitors” (Med Chem Res, 2013).

This assay deals with T1, Tyrosine-protein phosphatase non-receptor type 1 (Homo sapiens, UniProt P18031).
T1 sequence (P18031 whole entry): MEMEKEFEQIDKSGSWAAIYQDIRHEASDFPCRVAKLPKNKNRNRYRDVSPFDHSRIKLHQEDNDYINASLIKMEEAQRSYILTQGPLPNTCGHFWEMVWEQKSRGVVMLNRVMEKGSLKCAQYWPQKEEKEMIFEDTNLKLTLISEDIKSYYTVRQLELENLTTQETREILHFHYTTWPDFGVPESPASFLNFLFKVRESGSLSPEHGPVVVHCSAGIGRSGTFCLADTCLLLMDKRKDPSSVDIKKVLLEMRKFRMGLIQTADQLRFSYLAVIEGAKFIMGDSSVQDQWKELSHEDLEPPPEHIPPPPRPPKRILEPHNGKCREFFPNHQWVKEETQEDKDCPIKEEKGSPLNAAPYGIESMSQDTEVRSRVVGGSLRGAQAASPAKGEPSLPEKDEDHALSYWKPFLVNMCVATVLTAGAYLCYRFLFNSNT
Nature of the assay: Inhibition of Homo sapiens (human) PTP1B expressed in Escherichia coli using PNPP as substrate.
Turning to `NC(=O)[C@H](Cc1ccc(C2=CC(=O)NS2(=O)=O)cc1)NC(=O)[C@H](Cc1ccccc1)NC(=O)Cc1ccc(C(F)(F)F)cc1`, the negative-log IC50 (pIC50) is 5.85. Compound `CCCCCNC(=O)[C@H](Cc1ccc(C2=CS(=O)(=O)NC2=O)cc1)NC(=O)[C@H](Cc1ccccc1)NC(=O)Cc1ccc(OC)cc1` gave a negative-log IC50 (pIC50) of 5.22. With `CCCCCNC(=O)[C@H](Cc1ccc(N2CC(=O)NS2(=O)=O)cc1)NC(=O)[C@H](Cc1ccccc1)NC(=O)Cc1ccc(OC)cc1`, the pIC50 was 5.82. Compound `CCCCCNC(=O)[C@H](Cc1ccc(C2=CC(=O)NS2(=O)=O)cc1)NC(=O)[C@H](Cc1ccccc1)NC(=O)Cc1ccc(OC)cc1` showed a pIC50 of 5.92. The compound `CC(C)(C)OC(=O)N[C@@H](Cc1ccc(C2CC(=O)NS2(=O)=O)cc1)C(N)=O` (stereo partly specified) showed a pIC50 of 4.16.

As to `CC(=O)N[C@@H](Cc1ccc(C2CC(=O)NS2(=O)=O)cc1)C(N)=O` (stereo partly specified), the negative-log IC50 (pIC50) was 4.00. With `NC(=O)[C@@H](N)Cc1ccc(C2CC(=O)NS2(=O)=O)cc1` (stereo partly specified) the figure was 4.00; with `NC(=O)[C@H](Cc1ccc(C2CC(=O)NS2(=O)=O)cc1)NC(=O)[C@H](Cc1ccccc1)NC(=O)CCc1ccccc1` (stereo partly specified), 6.47. For the compound `NC(=O)[C@H](Cc1ccc(C2CC(=O)NS2(=O)=O)cc1)NC(=O)[C@H](Cc1ccccc1)NC(=O)Cc1ccc(C(F)(F)F)cc1` (stereo partly specified), the negative logarithm of the IC50 (pIC50) is 6.77. This pIC50 is 0.30 log units higher than that of the compound before. The figure for `COc1ccc(CC(=O)N[C@@H](Cc2ccccc2)C(=O)N[C@@H](Cc2ccc(C3CC(=O)NS3(=O)=O)cc2)C(N)=O)cc1` (stereo partly specified) is 6.77; for `NC(=O)[C@H](Cc1ccc(C2CC(=O)NS2(=O)=O)cc1)NC(=O)[C@H](Cc1ccccc1)NC(=O)Cc1ccc(O)cc1` (stereo partly specified) it is 6.77; for `NC(=O)[C@H](Cc1ccc(C2CC(=O)NS2(=O)=O)cc1)NC(=O)[C@H](Cc1ccccc1)NC(=O)Cc1ccccc1` (stereo partly specified) it is 6.75. With `CC(=O)N[C@@H](Cc1ccccc1)C(=O)N[C@@H](Cc1ccc(C2CC(=O)NS2(=O)=O)cc1)C(N)=O` (stereo partly specified) the figure was 6.18; with `NC(=O)[C@H](Cc1ccc(C2CC(=O)NS2(=O)=O)cc1)NC(=O)[C@@H](N)Cc1ccccc1` (stereo partly specified), 4.00. In turn, `NC(=O)[C@H](Cc1ccc(C2=CC(=O)NS2(=O)=O)cc1)NC(=O)[C@H](Cc1ccccc1)NC(=O)CCc1ccccc1` showed a pIC50 of 5.57. The figure for `COc1ccc(CC(=O)N[C@@H](Cc2ccccc2)C(=O)N[C@@H](Cc2ccc(C3=CC(=O)NS3(=O)=O)cc2)C(N)=O)cc1` is 5.80; for `NC(=O)[C@H](Cc1ccc(C2=CC(=O)NS2(=O)=O)cc1)NC(=O)[C@H](Cc1ccccc1)NC(=O)Cc1ccc(O)cc1` it is 6.10; for `NC(=O)[C@H](Cc1ccc(C2=CC(=O)NS2(=O)=O)cc1)NC(=O)[C@H](Cc1ccccc1)NC(=O)c1ccccc1` it is 5.75. `NC(=O)[C@H](Cc1ccc(C2=CC(=O)NS2(=O)=O)cc1)NC(=O)[C@@H](N)Cc1ccccc1` gave a pIC50 of 4.00. For `NC(=O)[C@H](Cc1ccc(C2=CC(=O)NS2(=O)=O)cc1)NC(=O)[C@H](Cc1ccccc1)NC(=O)Cc1ccccc1`, the negative logarithm of the IC50 (pIC50) is 6.00. With `CC(=O)N[C@@H](Cc1ccccc1)C(=O)N[C@@H](Cc1ccc([C@@H]2CC(=O)NS2(=O)=O)cc1)C(N)=O` the figure was 6.75.
